US20230285516A1 (priority 2020, published 2023)

Legend:
Treg (CD4+/FOXP3+) cells = assay: FACS of spleen Foxp3+ regulatory T cells in CIA models; type: in vivo, mice; details: early and long-standing arthritis, first and second sacrifice, vs placebo
Method: (§1) Early Arthritis Model. Fifty mice with the same characteristics were immunized at the base of the tail with 100 μg of chicken type II collagen emulsified in complete Freund's adjuvant. The boost was applied on day 21 at the base of the tail with 100 μg of type II collagen emulsified with Freund's incomplete adjuvant. On the same boosting day, the treatments (a-d) were applied every week for six weeks. Three animals were euthanized in the sixth week and three in the thirteenth week. The spleen, lymph nodes, joint tissue, liver, lungs, kidneys and heart were obtained in order to assess the inflammatory infiltrate, the predominant cell populations and the expression of pro- and anti-inflammatory cytokines.
(§2) Established Arthritis Model. Arthritis was induced as in the previous model in 50 mice and the treatments were applied intramuscularly, after 2 weeks of the boost, every week for 6 weeks. Three animals were euthanized in the eighth week and three in the fifteenth week. The spleen, lymph nodes, joint tissue, liver, lungs, kidneys and heart were obtained in order to assess the inflammatory infiltrate, the predominant cell populations and the expression of pro- and anti-inflammatory cytokines.
Cytometric evaluation. Using FACS, the percentage of populations of Th1 ([…]), Th2 (CD4^+/IL-4^+), Treg (CD4^+/FOXP3^+) Th17 (CD4^+/IL-17^+) and dendritic (CD4−/CD11c^+) cells in spleen cells.
FIG. 10. Effect of type I polymerized collagen in the early (preventive) and long-standing (late or palliative) arthritis model on the percentage of spleen CD4+ T cell subpopulations. (A) Spleen cells obtained ex vivo in the early arthritis model during the first sacrifice. (B) Spleen cells obtained ex vivo in the early arthritis model during the second sacrifice. (C) Spleen cells obtained ex vivo in the long-standing arthritis model during the first sacrifice. […] The intracellular production of IL-17A, IL-4, IFN-γ and Foxp3 by CD4+ T cells was detected by flow cytometry. The results are representative of 6 mice analyzed in each group. […]

mice with CIA = assay: Histopathological analysis of hind legs, collagen-induced arthritis (CIA) models; type: in vivo; details: H&E and PAS, intramuscular weekly for 6 weeks
Method: as §1, §2
Histological evaluation. The inflammatory infiltrate and tissue architecture were evaluated by H&E and Masson's trichrome staining and the content of proteoglycans, with the PAS technique. […]

**Q.** Which “Foxp3+ regulatory T cells” value (Treg (CD4+/FOXP3+) cells) does the source give for `CN(Cc1cnc2nc(N)nc(N)c2n1)c1ccc(C(=O)N[C@@H](CCC(=O)O)C(=O)O)cc1` [MTX, methotrexate, reference compound] here?
**A.** significant reduction

**Q.** And the “histopathology of joint tissue (inflammation, tissue architecture)” value (mice with CIA)?
**A.** induced some tissue abnormalities
